# Data taken from patent publication US7476755B2, “Therapeutic compounds” (Allergan, Inc., priority 2006, dated 2009).
# Assays:
# [1] = In vivo testing, monkey IOP; conditions: Conc. 0.1% (g/100 mL)
# Description: (§1) In vivo testing done as described in U.S. patent application Ser. No. 11/009,298 gave the results in Table 2 below.
# [2] = In vivo testing, dog IOP; conditions: Conc. 0.1% (g/100 mL)
# Description: as §1
# [3] = In vivo testing, dog hyperemia; conditions: Conc. 0.1% (g/100 mL)
# Description: as §1
# [4] = molecular target: T1, EP2 (Homo sapiens, UniProt P43116); assay: Competition binding, human EP2 receptors ([3H]PGE2); design: expressed in transfected cells; conditions: HEK 293 cells stably expressing human EP2, [3H]PGE2
# T1 sequence (P43116 whole entry): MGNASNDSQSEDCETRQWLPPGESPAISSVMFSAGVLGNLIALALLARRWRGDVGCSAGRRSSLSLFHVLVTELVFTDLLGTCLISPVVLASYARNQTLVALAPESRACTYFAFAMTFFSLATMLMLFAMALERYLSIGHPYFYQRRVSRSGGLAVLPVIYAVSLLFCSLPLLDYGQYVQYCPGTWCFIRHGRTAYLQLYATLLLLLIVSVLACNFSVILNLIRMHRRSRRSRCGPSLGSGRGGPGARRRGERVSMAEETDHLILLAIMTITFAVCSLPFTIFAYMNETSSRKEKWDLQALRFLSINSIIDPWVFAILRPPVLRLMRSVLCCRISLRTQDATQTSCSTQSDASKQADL
# Method: Competition binding experiments were performed in a medium containing Hank's balanced salt solution, Hepes 20 mM, pH 7.3, membranes (˜60 μg protein) or 2×10^5 cells from HEK 293 cells stably expressing human EP2 receptors, [^3H]PGE2 (10 nM) and various concentrations of test compounds in a total volume of 300 μl. Reaction mixtures were incubated at 23° C. for 60 min, and were filtered over Whatman GF/B filters under vacuum. Filters were washed three times with 5 ml ice-cold buffer containing 50 mM Tris/HCl (pH 7.3). Non-specific binding was estimated in the presence of excess unlabeled PGE2 (10 μM). Binding data fitted to the binding model for a single class of binding sites, using nonlinear regression analysis. IC50 values thus obtained were converted to Ki using the equation of Ki=(IC50/(1+[L]/KD) where [L] represents PGE2 concentration (10 nM) and KD the dissociation constant for [^3H]PGE2 at human EP2 receptors (40 nM). […]
# The cell homogenate was centrifuged at 19000 r.p.m. for 20 min at 4° C. using a Beckman Ti-60 rotor. The resultant pellet was resuspended in TME buffer to give a final 1 mg/ml protein concentration, as determined by Biorad assay. […]
# [^3H-] […] 17-phenyl PGF2α and non-specific binding determined with 10^−5M of unlabeled PGE2, or 17-phenyl PGF2α, according to receptor subtype studied.
# [5] = molecular target: T2, EP4 (Homo sapiens, UniProt P35408); assay: Radioligand binding, EP4; conditions: HEK-293 cells expressing EP4, [3H]PGE2; read-out: EP4 Ki EC50
# T2 construct: expressed in transfected cells; membrane fraction
# T2 sequence (P35408 whole entry): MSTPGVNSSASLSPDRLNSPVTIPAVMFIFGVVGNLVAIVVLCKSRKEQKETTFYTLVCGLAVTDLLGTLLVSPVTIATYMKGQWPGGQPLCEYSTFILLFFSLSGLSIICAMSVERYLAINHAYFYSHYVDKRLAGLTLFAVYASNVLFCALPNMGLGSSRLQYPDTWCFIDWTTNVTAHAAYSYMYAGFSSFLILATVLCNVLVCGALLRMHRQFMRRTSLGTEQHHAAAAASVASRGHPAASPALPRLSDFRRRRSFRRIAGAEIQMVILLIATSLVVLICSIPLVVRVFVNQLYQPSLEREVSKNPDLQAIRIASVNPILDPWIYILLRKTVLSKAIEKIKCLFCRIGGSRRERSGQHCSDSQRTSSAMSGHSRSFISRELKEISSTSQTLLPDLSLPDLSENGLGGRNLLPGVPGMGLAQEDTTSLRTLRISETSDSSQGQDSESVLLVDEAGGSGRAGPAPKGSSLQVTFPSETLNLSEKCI
# Method: HEK-293 cells stably expressing the human or feline FP receptor, or EP1, EP2, or EP4 receptors were washed with TME buffer, scraped from the bottom of the flasks, and homogenized for 30 sec using a Brinkman PT 10/35 polytron. TME buffer was added to achieve a final 40 ml volume in the centrifuge tubes (the composition of TME is 100 mM TRIS base, 20 mM MgCl2, […]; 10N HCl is added to achieve a pH of 7.4).
# The cell homogenate was centrifuged at 19000 r.p.m. for 20 min at 4° C. using a Beckman Ti-60 rotor. The resultant pellet was resuspended in TME buffer to give a final 1 mg/ml protein concentration, as determined by Biorad assay. Radioligand binding competition assays vs. [^3H-]17-phenyl PGF2n (5 nM) were performed in a 100 μl volume for 60 min. Binding reactions were started by adding plasma membrane fraction. The reaction was terminated by the addition of 4 ml ice-cold TRIS-HCl buffer and rapid filtration through glass fiber GF/B filters using a Brandel cell harvester. The filters were washed 3 times with ice-cold buffer and oven dried for one hour.
# [^3H-] PGE2 (specific activity 180 Ci mmol) was used as the radioligand for EP receptors. [^3H] 17-phenyl PGF2α was employed for FP receptor binding studies. […] 17-phenyl PGF2α and non-specific binding determined with 10^−5M of unlabeled PGE2, or 17-phenyl PGF2α, according to receptor subtype studied.
# [6] = molecular target: T3, hEP2/Gqs5 (Homo sapiens, UniProt P43116); assay: FLIPR calcium signal, EP2; type: cell-based; conditions: HEK-293(EBNA) cells, read-out: EP2 Ca2+ EC50
# T3 construct: expressed in transfected cells
# T3 sequence (P43116 whole entry): as the sequence (P43116 whole entry) above
# Method: HEK-293(EBNA) cells, stably expressing one type or subtype of recombinant human prostaglandin receptors (prostaglandin receptors expressed: hDP/Gqs5; hEP2; hEP2/Gqs5; hEP3A/Gqi5; hEP4/Gqs5; hFP; hIP; hTP), were cultured in 100 mm culture dishes in high-glucose DMEM medium containing 10% fetal bovine serum, 2 mM I-glutamine, 250 μg/ml geneticin (G418) and 200 μg/ml hygromycin B as selection markers, and 100 units/ml penicillin G, 100 μg/ml streptomycin and 0.25 μg/ml amphotericin B.
# Cells were seeded at a density of 5×10^4 cells per well in Biocoat® Poly-D-lysine-coated black-wall, clear-bottom 96-well plates (Becton-Dickinson) and allowed to attach overnight in an incubator at 37° C. Cells were then washed two times with HBSS-HEPES buffer (Hanks Balanced Salt Solution without bicarbonate and phenol red, 20 mM HEPES, pH 7.4) using a Denley Cellwash plate washer (Labsystems). […]
# Cells were excited with an Argon laser at 488 nm, and emission was measured through a 510-570 nm bandwidth emission filter (FLIPR™, Molecular Devices, Sunnyvale, Calif.). […] The peak increase in fluorescence intensity was recorded for each well. […] The peak fluorescence change in each drug-containing well was then expressed relative to the controls. […]
# [7] = molecular target: T1, EP2; assay: cAMP assay, EP2; type: cell-based; design: expressed in transfected cells; host or cells: HEK-EBNA cells; conditions: HEK-EBNA cells expressing EP2
# Method: A 384-well drug plate was prepared to contain 6 test compounds, PGE2 and cAMP in 16 serial dilutions in triplicate, using a Biomek station. HEK-EBNA cells expressing a target PG receptor subtype (EP2 or EP4) were suspended in a stimulation buffer (HBSS, 0.1% BSA, 0.5 mM IBMX and 5 mM HEPES, pH 7.4) in a density of 10^4 cells/5 μl. The reaction was initiated by mixing […] drug dilutions with 5 μl of HEK-EBNA cells in a well, carried out for 30 min at room temperature, and followed by the addition of 5 μl anti-cAMP acceptor beads in the control buffer with Tween-20 (25 mM NaCl, 0.03% Tween-20, 5 mM HEPES, pH7.4). After 30 min in the dark at room temperature, the mixtures were incubated with 15 μl biotinylated-cAMP/strepavidin donor beads in Lysis/Detection buffer (0.1% BSA, 0.3% Tween-20 and 5 mM HEPES, pH7.4) for 45 min at the room temperature. Fluorescence changes were read using a Fusion-alpha HT microplate reader.
# [8] = In vivo testing, rabbit hyperemia; conditions: Conc. 0.1% (g/100 mL)
# Description: as §1
DOG Max. hyperemia [3],Ki [4],Ki [5],EC50 [6],EC50 [7],RABBIT Max. hyperemia [8],Compound,MONKEY Max. IOP (%) [1],DOG Max. IOP (%) [2]
2.0,–,–,–,–,–,CCCCCC(=O)c1ccc([C@@H]2[C@@H](C/C=C\CCCC(=O)O)[C@H](Cl)C[C@H]2O)cc1 [Entry 1],31%,−50%
–,111 nM,2810 nM,31 nM,9 nM,–,CCCCCC(=O)c1ccc([C@@H]2[C@@H](C/C=C\CCCC(=O)O)[C@H](Cl)C[C@H]2O)cc1 [drawing 41],–,–
0.8,–,–,–,–,0,CCCCCC(=O)c1ccc([C@@H]2[C@@H](C/C=C\CCCC(=O)OC(C)C)[C@H](Cl)C[C@H]2O)cc1 [Entry 2],20%,−37%
